In brackets after ≈: the same amount, converted by molar mass. Structures can show the parent of a compound that is named as a salt. Where two headings read alike, the source gives them in different places.
Assays:
[1] = acute toxicity (LD50) in mice; settings: mouse, in vivo
Description: The LD50 value of D-glucaro-δ-lactam sodium salt in mice is not less than 3 g/kg by the intraveous injection and not less than 5 g/kg by the oral administration. The LD50 value of D-glucaro-δ-lactam methyl ester in mice is not less than 5 g/kg by the intraveous injection and not less than 10 g/kg by the oral administration. With respect to 6-O-triphenylmethyl-D-gluco-δ-lactam, the LD50 value is not less than 300 mg/kg in case of the subcutaneous administration in mice.

HIV = test: in vitro anti-HIV activity: decrease in the cytocidal effect of HIV on MT-2 cells; format: cell-based; settings: for EC50: Human immunodeficiency virus 1, MT2, 168 h, read-out: EC50 (concentration giving a 50% decrease in the cytocidal effect of HIV); for TI50 (IC50/EC50): ratio IC50/EC50, 10080 min
Description: (§1) Namely, the host human T-lymphotropic MT-2 cell line is transplanted on a microtiter plate and a series of dilutions of the test compounds shown in the table below are added with or without addition of HIV, followed by incubation for 7 days. For evaluation, the residual viable cell count is then determined by colorimetry.
(§2) In the above table, EC50 means the concentration of the test compound giving a 50% decrease in the cytocidal effect of HIV and IC50 means the concentration of the test compound giving a 50% inhibition of growth of normal non-infected cells.

[2] = inhibition of growth of normal non-infected cells (MT-2); format: cell-based, human; settings: human; MT-2 cells without HIV, 7 days, viable cell count by colorimetry; read-out: IC50 (concentration giving a 50% inhibition of growth of normal non-infected cells)
Description: as §1, §2

[3] = test system: human T-lymphotropic MT-2 cell line; test: as above; format: cell-based; settings: Homo sapiens, MT2, 168 h; MT-2 cells without HIV, 7 days, viable cell count by colorimetry; read-out: IC50 (concentration giving a 50% inhibition of growth of normal non-infected cells)
Description: as §1, §2

AIDS patients = settings: in words, cited from earlier work

O=C1N[C@H](COC(c2ccccc2)(c2ccccc2)c2ccccc2)[C@@H](O)[C@H](O)[C@H]1O [6-O-triphenylmethyl-D-gluco-δ-lactam]
LD50 ([1]; sc, subcutaneous administration): ≥ 300 mg/kg
EC50 (HIV): 0.0386 ng/mL (≈ 9.2e-05 µM)
TI50 (IC50/EC50) (HIV): 8.19 × 10^5
CC50 at 168 h [2]: 31.7 µg/mL (≈ 75.6 µM)

O=C(O)[C@H]1NC(=O)[C@H](O)[C@@H](O)[C@@H]1O [D-glucaro-δ-lactam sodium salt]
LD50 ([1]; intravenous injection): ≥ 3000 mg/kg
LD50 ([1]; oral administration): ≥ 5000 mg/kg

COC(=O)[C@H]1NC(=O)[C@H](O)[C@@H](O)[C@@H]1O [D-glucaro-δ-lactam methyl ester]
LD50 ([1]; intravenous injection): ≥ 5000 mg/kg
LD50 ([1]; oral administration): ≥ 10000 mg/kg

O=C(O)[C@H]1NC(=O)[C@H](O)[C@@H](O)[C@@H]1O [D-glucaro-δ-lactam calcium salt]
EC50 (HIV; MT-2 cells, with HIV, 7 days, viable cell count by colorimetry): < 0.25 ng/mL
TI50 (IC50/EC50) (HIV): > 1.00 × 10^6
IC50 [3]: > 250 µg/mL

Cc1cn([C@H]2C[C@H](N=[N+]=[N-])[C@@H](CO)O2)c(=O)[nH]c1=O [azidothymidine (AZT), azidothymidine]
side effects in clinical application (AIDS patients; listed as AZT): side effects of AZT on bone marrow
side effects in clinical application (AIDS patients): serious side effects such as bone marrow depression, anemia and neurologic disorders such as headache and convulsion
